Measured values taken from the supplement of paper PMC10307832.

Tests used:
Experiment in all cases: relative viability (nuclei count vs DMSO), 5 days (fraction); higher = more cells survive
AZD5582 + Crizotinib = compound: C[C@@H](C(=O)N[C@@H](C1CCCCC1)C(=O)N2CCC[C@H]2C(=O)N[C@@H]3[C@@H](CC4=CC=CC=C34)OCC#CC#CCO[C@@H]5CC6=CC=CC=C6[C@@H]5NC(=O)[C@@H]7CCCN7C(=O)[C@H](C8CCCCC8)NC(=O)[C@H](C)NC)NC [AZD5582] + C[C@@H](Oc1cc(-c2cnn(C3CCNCC3)c2)cnc1N)c1c(Cl)ccc(F)c1Cl [Crizotinib] (partner 1 µM)
Outline: (§1)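 Lung cancer cell lines in 1536-well plates got either a single drug or a fixed anchor-drug dose together with five library-drug doses (not always all listed) in √10 steps, by pin tool, on the day after seeding. Nuclei were counted after 5 days, and relative viability is the treated-to-vehicle ratio of nuclei counts. Values are medians of duplicate plates.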

AZD5582 + Decitabine = compound: C[C@@H](C(=O)N[C@@H](C1CCCCC1)C(=O)N2CCC[C@H]2C(=O)N[C@@H]3[C@@H](CC4=CC=CC=C34)OCC#CC#CCO[C@@H]5CC6=CC=CC=C6[C@@H]5NC(=O)[C@@H]7CCCN7C(=O)[C@H](C8CCCCC8)NC(=O)[C@H](C)NC)NC [AZD5582] + Nc1ncn([C@H]2C[C@H](O)[C@@H](CO)O2)c(=O)n1 [Decitabine] (partner 2 µM)
Outline: as §1

AZD5582 + OSI-027 = compound: C[C@@H](C(=O)N[C@@H](C1CCCCC1)C(=O)N2CCC[C@H]2C(=O)N[C@@H]3[C@@H](CC4=CC=CC=C34)OCC#CC#CCO[C@@H]5CC6=CC=CC=C6[C@@H]5NC(=O)[C@@H]7CCCN7C(=O)[C@H](C8CCCCC8)NC(=O)[C@H](C)NC)NC [AZD5582] + COc1cccc2cc(-c3nc([C@H]4CC[C@H](C(=O)O)CC4)n4ncnc(N)c34)[nH]c12 [OSI-027] (partner 0.5 µM)
Outline: as §1

Temozolomide + OSI-027 = compound: Cn1nnc2c(C(N)=O)ncn2c1=O [Temozolomide] + COc1cccc2cc(-c3nc([C@H]4CC[C@H](C(=O)O)CC4)n4ncnc(N)c34)[nH]c12 [OSI-027] (partner 0.5 µM)
Outline: as §1

Cell Line	relative viability (AZD5582 + Crizotinib; first compound 0.001581 µM)	relative viability (AZD5582 + Crizotinib; first compound 0.005 µM)	relative viability (AZD5582 + Crizotinib; first compound 0.01581 µM)	relative viability (AZD5582 + Crizotinib; first compound 0.05 µM)	relative viability (AZD5582 + Decitabine; first compound 0.001581 µM)	relative viability (AZD5582 + Decitabine; first compound 0.005 µM)	relative viability (AZD5582 + Decitabine; first compound 0.01581 µM)	relative viability (AZD5582 + Decitabine; first compound 0.05 µM)	relative viability (AZD5582 + OSI-027; first compound 0.001581 µM)	relative viability (AZD5582 + OSI-027; first compound 0.005 µM)	relative viability (AZD5582 + OSI-027; first compound 0.01581 µM)	relative viability (AZD5582 + OSI-027; first compound 0.05 µM)	relative viability (Temozolomide + OSI-027; first compound 0.2 µM)	relative viability (Temozolomide + OSI-027; first compound 0.6325 µM)	relative viability (Temozolomide + OSI-027; first compound 2 µM)	relative viability (Temozolomide + OSI-027; first compound 6.325 µM)	relative viability (Temozolomide + OSI-027; first compound 20 µM)
EKVX	0.713	0.9	0.753	0.96	0.351	0.377	0.294	0.385	0.667	0.852	0.687	0.778	0.513	0.669	0.555	0.686	0.591
NCI-H1915	0.854	0.916	0.915	0.882	0.278	0.26	0.276	0.259	0.559	0.64	0.475	0.627	0.693	0.614	0.602	0.388	0.326
NCI-H1395	–	–	–	–	0.694	0.743	–	0.782	0.7	0.734	0.583	0.767	0.629	0.604	0.686	0.513	0.659
HCC-366	0.476	0.517	0.56	0.635	0.346	0.37	0.386	0.395	0.654	0.995	–	0.934	0.865	0.856	1.03	0.879	0.921
HCC-44	0.5	0.457	0.793	0.378	0.828	0.786	0.845	0.681	0.42	0.39	0.251	0.255	0.682	0.425	0.477	0.494	0.477
COR-L 105	0.667	0.82	0.684	0.817	0.666	0.724	0.632	0.723	0.716	0.984	0.517	0.671	0.476	0.781	0.735	0.742	0.303
LK-2	0.225	0.218	0.218	0.24	0.257	0.277	0.307	0.326	0.237	0.257	0.197	0.179	0.2	0.218	0.214	0.168	0.196
LCLC-97TM1	–	0.269	0.338	0.257	0.216	0.189	0.243	0.0933	0.4	0.567	0.496	0.382	0.554	0.525	0.571	0.486	0.524
PC-3 [JPC-3]	0.862	0.882	0.97	0.314	0.737	0.641	0.855	0.431	0.633	0.596	0.635	0.504	0.738	0.78	0.843	0.749	0.269
NCI-H1975	1.07	1.1	0.938	1.04	0.35	0.408	0.412	0.276	0.688	0.956	0.829	0.9	0.888	0.683	0.852	0.731	0.804
NCI-H647	0.809	0.732	1.02	0.327	0.426	0.366	0.417	0.331	0.599	0.704	0.463	0.75	0.676	0.661	0.776	0.431	0.185
NCI-H838	0.823	0.914	0.746	1.04	0.451	0.41	0.476	0.396	0.339	0.423	–	0.449	0.426	0.485	0.397	0.419	0.411
NCI-H1648	–	–	–	–	0.502	0.528	–	0.466	–	0.266	0.228	0.301	–	0.23	0.262	0.235	0.274
NCI-H1623	–	–	–	–	–	–	–	–	0.422	0.407	0.457	0.432	–	0.462	0.471	0.388	0.297
CAL-12T	–	0.175	0.531	0.192	–	–	–	–	0.239	0.339	0.281	0.323	0.728	0.712	0.914	0.608	0.657
A549	0.504	0.923	0.667	0.826	0.214	0.271	0.211	0.263	–	–	–	–	–	–	–	–	–
Calu-6	0.432	0.384	0.837	0.336	–	–	–	–	–	–	–	–	–	–	–	–	–
NCI-H522	–	–	–	–	0.624	0.711	0.624	0.641	0.671	0.711	0.861	0.595	0.723	0.729	0.778	0.665	0.648
NCI-H1563	0.8	0.86	0.852	0.978	–	–	–	–	0.688	0.709	0.731	0.679	0.781	0.817	0.77	0.789	0.796
IA-LM	0.546	0.63	0.818	0.699	–	–	–	–	–	–	–	–	–	–	–	–	–
NCI-H2342	–	–	–	–	0.692	0.835	0.698	0.702	0.518	0.587	0.509	0.659	0.544	0.665	0.618	0.59	0.678
NCI-H1793	–	–	–	–	0.487	0.607	0.473	0.53	0.2	0.301	0.212	0.185	–	0.279	0.27	0.245	0.232
